In BindingDB's records for doi:10.1021/jm060666p (University of Massachusetts Medical School, 2006):

Target: T1, Dimer of Gag-Pol polyprotein [491-589,Q496K] (Human immunodeficiency virus 1, UniProt P03369, Q496K)
T1 construct: 491-589
Assay: Enzyme Inhibition Assay
Protocol: HIV-1 protease inhibitor activities were determined by the fluorescence resonance energy transfer (FRET) method. The energy transfer donor (EDANS) and acceptor (DABCYL) were labeled at two ends of peptide substrate to perform FRET. Fluorescence measurements were carried out on a fluorescence spectrophotometer. Excitation and emission wavelengths were set at 340 and 490 nm. Inhibitor binding dissociation constant Ki was obtained by nonlinear regression fitting to the plot of initial velocity as a function of inhibitor concentrations based on Morrison equation. The initial velocities were derived from the linear range of reaction curves.

Structure (SMILES)	Ki
COc1cccc(S(=O)(=O)N(C[C@H]2CCCO2)C[C@@H](O)[C@H](Cc2ccccc2)NC(=O)[C@@H]2CN(c3ccccc3)C(=O)O2)c1 [(5S)-N-[(1S,2R)-1-Benzyl-2-hydroxy-3-[[(3-methoxyphenyl)-sulfonyl][(R)-(tetrahydro-2-furanyl)methyl]amino]propyl]-2-oxo-3-phenyloxazolidine-5-carboxamide]	42 nM
COc1cccc(S(=O)(=O)N(C[C@H]2CCCO2)C[C@@H](O)[C@H](Cc2ccccc2)NC(=O)[C@@H]2CN(c3cccc(F)c3)C(=O)O2)c1 [(5S)-N-[(1S,2R)-1-Benzyl-2-hydroxy-3-[[(3-methoxyphenyl)-sulfonyl][(R)-(tetrahydro-2-furanyl)methyl]amino]propyl]-3-(3-fluorophenyl)-2-oxooxazolidine-5-carboxamide]	150 nM
